Read-outs that look alike come from different tables or passages of the source. A value given as a limit tells only on which side of the number the result lay.

Data set [1] in a line: Microsomal metabolic stability, human liver microsomes. The settings on record: both sexes, pooled liver microsomes; for remaining at 1 h, 0.2 μM: pH 7.4, 60 min, n = 3, read-out: %remaining in HLM; for half-life at 0.2 μM: pH 7.4, HLM, read-out: half-life (t1/2) in human liver microsomes. Type of data set: in vitro ADME. On the procedure: (§1) The metabolic stability of the compounds was evaluated using mouse liver microsomes (MLM) and human liver microsomes (HLM). Each compound was tested at a final concentration of 0.2 μM to determine their half-lives. […]
(§2) Microsomal metabolic stability assay protocol
(§3) Pooled liver microsomes from male C57BL/6 mouse (MLM) and mixed gender human (HLM) were obtained from Sekisui XenoTech (Kansas City, KS). Stock solutions of compounds (1 mM) were prepared in DMSO and diluted to 10 μM working solution using phosphate buffer (100 mM, pH 7.4). Microsomes (20 mg/mL) were thawed on ice and diluted to 1 mg/mL using potassium phosphate buffer (100 mM, pH 7.4). The mixture of liver microsomes and test compounds (0.2 μM) was (1 picture or pasted object on this page, not shown here) […]
(§4) preincubated at 37°C for 10 min. Next, NADPH-regenerating system (final concentrations of 1 mM NADP+, 5 mM glucose-6-phosphate, and 1 U/mL glucose-6-phosphate dehydrogenase) as a cofactor was added to the incubation mixtures at the final volume of 1000 μL to initiate the metabolic reactions. Quenching of the metabolic reaction was performed at specific intervals: 0, 5, 15, 30, and 60 min by adding100 μL of reaction mixtures to ice-cold acetonitrile (4 volumes) containing 25 nM internal standard. The samples were kept on ice for 15 minutes, followed by protein precipitation through centrifugation at 3600 rpm for 10 minutes at4°C. Finally, the liquid chromatography-mass spectrometry/MS (LC-MS/MS) analysis was conducted on obtained supernatants. To ensure accuracy, all measurements were […]
(§5) The percent of remaining compound (%R) compared to zero sample time was obtained at each time point using LC-MS peak areas. A plot was created for the natural logarithm (ln) of % R against the incubation time to determine the elimination rate constant from the slope of the linear part. The in vitro t1/2was measured by […]
(§6) While the following Eq. (2) was used for calculating CLint (μL/min/mg): […]
(In general: Microsomes from liver hold many membrane-bound enzymes, among them those of drug oxidation.)

Data set [2] in a line: Microsomal metabolic stability, mouse liver microsomes. Type of data set: in vitro ADME. The settings on record: male, C57BL/6, mouse, pooled liver microsomes; for remaining at 1 h, 0.2 μM: pH 7.4, 60 min, n = 3, read-out: %remaining in MLM; for half-life at 0.2 μM: pH 7.4, MLM. How it is done:
as §1, §2, §3, §4, §5, §6

For another data set, the target named is PAD2 (Homo sapiens, UniProt Q9Y2J8). The experiment in a line: PAD2 inhibitory activity. The settings on record: n = 3. Type of data set: biochemical.
The target in a further data set is T1, PAD1 (Homo sapiens, UniProt Q9ULC6).
T1 sequence (Q9ULC6 1-663): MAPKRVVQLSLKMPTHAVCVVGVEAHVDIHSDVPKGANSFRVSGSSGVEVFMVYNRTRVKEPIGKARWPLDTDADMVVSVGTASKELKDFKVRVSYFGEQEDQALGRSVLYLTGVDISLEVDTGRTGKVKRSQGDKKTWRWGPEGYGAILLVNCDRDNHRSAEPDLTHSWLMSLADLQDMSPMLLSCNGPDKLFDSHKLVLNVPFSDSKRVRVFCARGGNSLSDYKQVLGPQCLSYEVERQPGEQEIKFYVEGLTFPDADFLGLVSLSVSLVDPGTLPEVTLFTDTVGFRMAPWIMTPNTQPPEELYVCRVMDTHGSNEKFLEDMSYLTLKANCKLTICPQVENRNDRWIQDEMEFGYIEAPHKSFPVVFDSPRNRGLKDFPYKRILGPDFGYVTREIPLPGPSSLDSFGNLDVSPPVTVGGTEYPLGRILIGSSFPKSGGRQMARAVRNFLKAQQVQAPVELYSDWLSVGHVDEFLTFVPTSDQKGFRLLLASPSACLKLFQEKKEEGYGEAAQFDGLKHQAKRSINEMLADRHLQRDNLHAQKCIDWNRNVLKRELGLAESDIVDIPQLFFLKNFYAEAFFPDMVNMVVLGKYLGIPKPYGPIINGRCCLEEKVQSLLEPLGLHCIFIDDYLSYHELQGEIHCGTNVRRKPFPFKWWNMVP
The experiment in a line: PAD1 inhibitory activity. Type of data set: biochemical. The settings on record: n = 3.

The target of data set [3] is T2, PAD4 (Homo sapiens, UniProt Q9UM07).
T2 construct: purchased Cayman Chemical
The experiment in a line: Time-dependent PAD4 inhibition assay (pre-incubation 10 or 30 min). The settings on record: BB-Cl-amidine 1 μM, 7 125 μM, 8 45 μM, n = 3. The format is biochemical. On the procedure: To test this hypothesis, the three compounds (3, 7 and 8) were further assessed through a time-dependent inhibition assay. This assay involved pre-incubating the compounds with the PAD4 enzyme for 10 and 30 min before initiation of the enzymatic reaction.
Fig. 3. Inhibition of PAD4 with a pre-incubation of the enzyme and tested compounds for 10- or 30-min. […]
(§7) PAD4 Enzyme Inhibition Assays
(§8) PAD4 Inhibitor Screening Assay Kit (AMC) was purchased from Cayman. Different concentrations of the test compounds were added to a 96-well plate with PAD4 enzyme enzyme and incubated at 37 °C for 10 minutes or 30 minutes. Then […] was added toinitiate the reaction and incubated at 37 °C for 20 min. The reaction was terminated by the addition of Develop solution.
Fluorescence analysis was performed at excitation wavelengths of 355 ~ 365 nm and emission wavelengths of 445 ~ 455 nm. The fluorescence signal was inversely

Data set [4] has as its target T2, PAD4. The experiment in a line: PAD4 enzyme inhibition assay (Cayman PAD4 inhibitor screening kit, AMC). The format is biochemical. Conditions: n = 3; read-out: Inhibitory activity IC50 PAD4. How it is done: chromatography with ACN:H2O (0.02% formic acid) as the mobile phase, and then […]
as §7, §8
Fluorescence analysis was performed at excitation wavelengths of 355 ~ 365 nm and emission wavelengths of 445 ~ 455 nm. The fluorescence signal was inversely proportional to the amount ofcitrullination. IC50 were analyzed using GraphPad Prism […]
as §2
Pooled liver microsomes from male C57BL/6 mouse (MLM) and mixed gender human (HLM) were obtained from Sekisui XenoTech (Kansas City, KS). Stock solutions of compounds (1 mM) were prepared in DMSO and diluted to 10 μM working solution using phosphate buffer (100 mM, pH 7.4). Microsomes (20 mg/mL) were thawed on ice and diluted to 1 mg/mL using potassium phosphate buffer (100 mM, pH 7.4). The mixture of liver microsomes and test compounds (0.2 μM) was (1 picture or pasted object on this page, not shown here)

A further data set deals with A549 cells. The experiment in a line: MTT cytotoxicity assay. Type of data set: cell-based. Conditions: 50 μM and 5 μM, 48-hour incubation. How it is done: (§9) The cytotoxicity of three compounds on A549 cells was evaluated using the MTT assay.
(§10) In vitro cytotoxicity was evaluated using the MTT
(§11) (3-(4,5-dimethylthiazol-2-yl)-2,5-diphenyltetrazolium bromide) assay. Freshly trypsinized A549 cells were seeded into 96-well plates at a density of 5 × 10⁴ cells/mL, with 100 µL per well, and incubated at 37°C in a 5% CO₂ atmosphere for 12 hours. […]
(§12) concentrations of 500 μM, 50 μM, and 5 μM (25 µL per well), followed by 48-hour incubation. After this period, MTT solution (5 mg/mL) was added to each well at 25 µL per well, and the plates were incubated for an additional 4 hours. Control wells containing untreated cells were handled identically. Following incubation, the medium in the 96-well plate was removed, and 100 µL of DMSO was added to each well to dissolve the formazan crystals produced by the reduction of MTT in viable cells. Absorbance was measured using a microplate reader. Cell viability was determined using the following formula: Cell viability (%) = (OD-treated cells)/(OD […]
On the technique in general: Tetrazolium dyes change colour on reduction, which living cells bring about.

The nature of another data set: MTT cytotoxicity assay. Conditions: human, A549 cells, 48-hour incubation; for viability at 48 h, 500 µM: read-out: Cell viability of A549 cells; for IC50 at 48 h: read-out: IC50 against A549 cells (cytotoxicity). Type of data set: cell-based. How it is done:
as §9, §10, §11, §12

For data set [5] the following is noted: cited from earlier work.
Setting [6] is: read-out: half-life (t1/2) in mouse liver microsomes.
Setting [7] is: rough estimation beyond the 60 min assay, read-out: t1/2 in MLM, rough estimation.

T2 sequence (Q9UM07 whole entry): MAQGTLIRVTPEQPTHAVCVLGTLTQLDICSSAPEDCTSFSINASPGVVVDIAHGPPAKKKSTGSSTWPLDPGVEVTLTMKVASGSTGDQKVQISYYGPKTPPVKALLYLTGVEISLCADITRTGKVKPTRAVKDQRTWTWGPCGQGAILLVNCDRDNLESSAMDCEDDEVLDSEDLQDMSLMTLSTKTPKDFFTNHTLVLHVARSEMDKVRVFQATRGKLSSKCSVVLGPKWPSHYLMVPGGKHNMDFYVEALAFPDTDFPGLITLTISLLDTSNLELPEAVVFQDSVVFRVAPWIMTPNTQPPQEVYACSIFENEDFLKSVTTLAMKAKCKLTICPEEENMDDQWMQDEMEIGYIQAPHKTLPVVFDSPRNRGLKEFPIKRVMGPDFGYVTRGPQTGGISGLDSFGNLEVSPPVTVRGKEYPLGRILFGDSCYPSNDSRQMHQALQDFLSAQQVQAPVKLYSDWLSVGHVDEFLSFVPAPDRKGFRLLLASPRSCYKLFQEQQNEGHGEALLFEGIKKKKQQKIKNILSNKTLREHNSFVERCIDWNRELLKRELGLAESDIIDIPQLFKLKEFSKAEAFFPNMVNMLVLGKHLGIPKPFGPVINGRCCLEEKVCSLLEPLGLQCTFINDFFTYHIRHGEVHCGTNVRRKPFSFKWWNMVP
Chain of PAD2 (Q9Y2J8 whole entry, species assumed): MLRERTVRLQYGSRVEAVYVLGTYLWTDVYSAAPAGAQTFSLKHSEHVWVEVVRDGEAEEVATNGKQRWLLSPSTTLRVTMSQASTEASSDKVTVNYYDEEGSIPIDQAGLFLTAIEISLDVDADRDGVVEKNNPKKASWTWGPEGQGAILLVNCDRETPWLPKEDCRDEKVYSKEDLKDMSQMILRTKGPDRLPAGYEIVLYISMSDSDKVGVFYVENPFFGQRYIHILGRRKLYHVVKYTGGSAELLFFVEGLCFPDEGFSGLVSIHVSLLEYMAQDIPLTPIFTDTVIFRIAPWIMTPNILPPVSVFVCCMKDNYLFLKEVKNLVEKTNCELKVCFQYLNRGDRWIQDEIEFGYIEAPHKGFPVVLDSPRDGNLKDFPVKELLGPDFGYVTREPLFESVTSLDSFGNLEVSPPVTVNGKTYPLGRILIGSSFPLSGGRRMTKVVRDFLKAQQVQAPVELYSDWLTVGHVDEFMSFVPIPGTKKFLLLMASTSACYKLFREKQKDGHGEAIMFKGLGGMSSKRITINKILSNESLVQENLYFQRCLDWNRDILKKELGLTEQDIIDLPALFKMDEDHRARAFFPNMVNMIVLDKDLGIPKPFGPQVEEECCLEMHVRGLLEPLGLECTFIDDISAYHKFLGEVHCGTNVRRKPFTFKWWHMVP

For orientation: share remaining means what is left of the initial amount, in per cent. Turning to `N=C(CCl)NCCC[C@H](NC(=O)c1ccc(-c2ccccc2)cc1)c1nc2ccccc2[nH]1` [BB-Cl-amidine, reference compound], the values for the share remaining at 1 h, 0.2 μM in data set [1] and in data set [2] were 51.8 ± 7.48% and 10.4 ± 1.42%, respectively. The half-life at 0.2 μM is 1.03 h in data set [1] and 0.302 h in [2] (setting [6]).
Broadly, the IC50 is the concentration that inhibits the measured activity by half. One may read the viability as a read-out of living cells in per cent, often relative to untreated cells. Consider `N=C(CO)NCCC[C@H](NC(=O)c1ccc(-c2ccccc2)cc1)c1nc2ccccc2[nH]1` [Compound 7], for which the IC50 at PAD2 was determined as 352 ± 21.3 µM; against PAD1, 194 ± 8.21 µM; at PAD4 [4], 125 ± 10.2 µM. On PAD4 [3], the “%inhibition of PAD4, pre-incubation 10 min” value is on record as 31.46%. Moreover, the “%inhibition of PAD4, pre-incubation 30 min” value on PAD4 [3] came to 36.86%. Further, the figures for the fraction remaining at 1 h, 0.2 μM in data set [1] and in [2] were 90.3 ± 10.6% and 75.9 ± 4.75%, respectively. In addition, the half-life at 0.2 μM in data set [1] is more than 1 h; in data set [2] (setting [6]) it was more than 1 h; in data set [2] (setting [7]) it was approximately 2.65 h. For the same molecule, the “Cytotoxicity on A549 cells” value in the data set on A549 cells was “no cytotoxicity”. Further, the viability at 48 h, 500 µM in “MTT cytotoxicity assay” is 26.8%. Further, in “MTT cytotoxicity assay”, the IC50 at 48 h was approximately 455 µM.
As to `O=C(CO)NCCC[C@H](NC(=O)c1ccc(-c2ccccc2)cc1)c1nc2ccccc2[nH]1` [Compound 8], the values for the IC50 at PAD2, against PAD1 and on PAD4 [4] were 74.9 ± 6.48 µM, 32 ± 0.78 µM and 46.5 ± 4.46 µM, respectively. The “%inhibition of PAD4, pre-incubation 10 min” value at PAD4 [3] was found to be 49.28%. Moreover, the “%inhibition of PAD4, pre-incubation 30 min” value on PAD4 [3] is on record as 51.44%. The figures for the share remaining at 1 h, 0.2 μM in [1] and in data set [2] were 73.2 ± 1.89% and 63 ± 4.85%, respectively. The half-life at 0.2 μM in data set [1] is more than 1 h; in data set [2] (setting [6]) it was more than 1 h; in data set [2] (setting [7]) it was approximately 1.45 h. Besides, in the data set on A549 cells, the “Cytotoxicity on A549 cells” value was “no cytotoxicity”. Moreover, the viability at 48 h, 500 µM in “MTT cytotoxicity assay” is 103%. Moreover, the IC50 at 48 h in the data set “MTT cytotoxicity assay” was more than 500 µM.
On to `N=C(CCl)NCCC[C@H](NC(=O)c1ccc(B(O)O)cc1)C(=O)NCc1ccccc1` [YJ-4B], for which, in [5], the “t1/2 (pharmacokinetic studies)” value is recorded as 0.35 h.
Turning to `N=C(CCl)NCCC[C@H](Nc1ccc([N+](=O)[O-])c2nonc12)C(=O)NCc1ccccc1` [ZD-E-1], in data set [5] (in vivo), the “t1/2 (pharmacokinetic studies)” value was 0.41 h.
